Values of other authors in patent publication US20020132320A1, “Glycoconjugate synthesis using a pathway-engineered organism” (priority 2001, published 2002).

Experiments:
CMP-NeuNAc synthetase = target: T1, CMP-NeuNAc synthetase (Escherichia coli O18:K1:H7, UniProt P13266); conditions: enzyme purified from E. coli K1; read-out: apparent Km
T1 construct: host or cells: E. coli K1

[1] = test system: UDP-GalNAc pyrophosphorylase; conditions: substrate of purified UDP-GalNAc pyrophosphorylase
E. coli NanA = E. coli NanA (Escherichia coli, UniProt P0A6L4); conditions: cleavage reaction
[2] = target: Hyaluronan synthase (spHAS) (Streptococcus pyogenes, UniProt P0C0H0)
[3] = relative to morphine

Question: For Nc1ccn([C@@H]2O[C@H](COP(=O)(O)OP(=O)(O)OP(=O)(O)O)[C@@H](O)[C@H]2O)c(=O)n1 [CTP, Cytosine 5′-triphosphate], which Km (CMP-NeuNAc synthetase) is on record?
Answer: 310 µM

Question: Which Km [1] does the source give for CC(=O)N[C@H]1C(OP(=O)(O)O)O[C@H](CO)[C@H](O)[C@@H]1O (stereo partly shown) [GalNAc-1-P, N-acetylgalactosamine-1-phosphate] here?
Answer: 290 µM

Question: For CC(=O)NC1C(OP(=O)(O)O)OC(CO)C(O)C1O (stereo not shown) [GlcNAc-1-P], which Km [1] is on record?
Answer: 1100 µM

Question: For CC(=O)N[C@H]1[C@H]([C@H](O)[C@H](O)CO)OC(O)(C(=O)O)C[C@@H]1O (stereo partly shown) [NeuNAc, N-acetylneuraminic acid], which Km (E. coli NanA) is on record?
Answer: 4300 µM

Question: With O=C(O)[C@H]1O[C@H](OP(=O)(O)OP(=O)(O)OC[C@H]2O[C@@H](n3ccc(=O)[nH]c3=O)[C@H](O)[C@@H]2O)[C@H](O)[C@@H](O)[C@@H]1O [UDP-GlcA, uridine 5′-diphosphoglucuronic acid] as the compound, how does the Km [2] read?
Answer: 40 ± 4 µM

Question: Which Km [2] does the source give for CC(=O)N[C@H]1[C@@H](OP(=O)(O)OP(=O)(O)OC[C@H]2O[C@@H](n3ccc(=O)[nH]c3=O)[C@H](O)[C@@H]2O)O[C@H](CO)[C@@H](O)[C@@H]1O [UDP-GlcNAc, uridine 5′-diphospho-N-acetylglucosamine] here?
Answer: 149 ± 3 µM

Question: With CN1CC[C@]23c4c5ccc(O)c4O[C@H]2[C@@H](O[C@@H]2O[C@H](C(=O)O)[C@@H](O)[C@H](O)[C@H]2O)C=C[C@H]3[C@H]1C5 [morphine-6-O-glucuronide] as the compound, how does the “times more active than morphine” value [3] read?
Answer: 50 times
